# Measured values from patent publication US10344019B2 (priority 2010, dated 2019).
# Experiments:
# Format in all cases: cell-based
# [1] = tested on: HCV 2a Rluc cells (NS5A chimeric genotype 2a JFH-1 replicon with genotype 2a J6 strain NS5A gene, M31 present); test: HCV replicon reporter assay, genotype 2a J6 (M31 present); conditions: Hepatitis C virus, read-out: 2a J6
# Method in brief: (§1)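 Renilla luciferase HCV replicon cells: dicistronic 1b Con1, 1a H77 or 2a JFH-1 replicons, or a JFH-1 chimera carrying J6 NS5A (M31 present). Compound in DMSO serial dilutions, 72 h incubation, then lysis and luciferase read. EC50 by non-linear regression.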
# [2] = tested on: Q30R in genotype 1a NS5A, 1a Rluc replicon transfected into Huh-7 cured-51 cells; test: HCV replicon assay, resistance mutant 1a Q30R; conditions: Hepatitis C virus, Huh-7, read-out: 1a Q30R
# Description: Evaluation of cell-based anti-HCV activity: Antiviral potency (EC50) was determined using a Renilla luciferase (RLuc)-based HCV replicon reporter assay. To perform the assay for genotype 1 and 2a JFH-1, HCV 1b RLuc cells (harboring a dicistronic genotype 1b Con1 replicon that encodes a RLuc reporter), or HCV 1a RLuc cells (harboring a dicistronic genotype 1a H77 replicon that encodes a RLuc reporter), or HCV 2a JFH-1 Rluc cells (harboring a dicistronic genotype 2a JFH-1 replicon that encodes a RLuc reporter) were dispensed into 384-well plates. To perform the assay for genotype 2a (with M31 present) or 2b, HCV 2a Rluc or 2b Rluc cells (both with M31 present) harboring a dicistronic NS5A chimeric genotype 2a JFH-1 replicon that encodes a RLuc reporter and either genotype 2a J6 strain NS5A gene or genotype 2b MD2b-1 NS5A gene (based on Los Alamos HCV database isolates, both with M31 present) respectively, were dispensed into 384-well plates. To perform the assay for genotype 3 and 4, HCV 3a RLuc or 4a Rluc cells harboring a dicistronic NS5A chimeric genotype 1b Con1 replicon that encodes a RLuc reporter and either a consensus genotype 3a NS5A gene or genotype 4a NS5A gene (based on Los Alamos HCV database isolates) respectively, were dispensed into 384-well plates. Compounds were re-suspended in DMSO at a concentration of 10 mM and serially diluted in DMSO either manually or using an automated pipeting instrument. Serially diluted compounds were mixed with cell culture media and added to the seeded cells. […] 72 hours later, cells were lysed and Renilla luciferase activity quantified as recommended by the manufacturer (Promega-Madison, Wis.). Non-linear regression was performed to calculate EC50 values.
# To determine the antiviral potency (EC50) against resistance mutants, resistance mutations, including M28T, Q30R, Q30H, L31M, and Y93C in genotype 1a NS5A and Y93H in genotype 1b NS5A, were introduced individually into either 1a Rluc or 1b Rluc replicons described above by site directed mutagenesis. Replicon RNA of each resistant mutant was transfected into Huh-7 cured-51 cells and antiviral potency was determined on these transfected cells as described above.
# [3] = tested on: HCV 2b Rluc cells (NS5A chimeric genotype 2a JFH-1 replicon with genotype 2b MD2b-1 NS5A gene, M31 present); test: microbe, parasite or virus in culture; conditions: Hepatitis C virus, read-out: 2b
# Method in brief: (§2)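 Replicon cells stably carrying the listed RLuc-encoding dicistronic replicons were seeded and treated with DMSO serial dilutions of compound (10 mM stocks) diluted into culture medium. After 72 h, cells were lysed and Renilla luciferase activity measured. EC50 was derived by non-linear regression.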
# [4] = tested on: HCV 3a RLuc cells (NS5A chimeric genotype 1b Con1 replicon with consensus genotype 3a NS5A gene); test: microbe, parasite or virus in culture; conditions: Hepatitis C virus, read-out: 3a, genotype 3a NS5A chimeric replicon
# Method in brief: as §2
# [5] = tested on: HCV 1a RLuc cells (dicistronic genotype 1a H77 replicon, RLuc reporter); test: microbe, parasite or virus in culture; conditions: Hepatitis C virus, genotype 1a H77 RLuc replicon; read-out: 1a
# Method in brief: as §1
# [6] = tested on: HCV 2a JFH-1 Rluc cells (dicistronic genotype 2a JFH-1 replicon, RLuc reporter); test: microbe, parasite or virus in culture; conditions: Hepatitis C virus, genotype 2a JFH-1 RLuc replicon; read-out: 2a JFH
# Method in brief: as §1
# [7] = tested on: HCV 1b RLuc cells (dicistronic genotype 1b Con1 replicon, RLuc reporter); test: microbe, parasite or virus in culture; conditions: Hepatitis C virus, read-out: 1b (nM)
# Method in brief: as §1
SMILES,EC50 [1] [nM],EC50 [2] [nM],EC50 [3] [nM],EC50 [4] [nM],EC50 [5] [nM],EC50 [6] [nM],EC50 [7] [nM]
COC[C@H]1C[C@@H](c2ncc(-c3ccc4c(c3)COc3cc5c(ccc6nc([C@@H]7C[C@H](C)CN7C(=O)[C@@H](NC(=O)OC)C(C)C)[nH]c65)cc3-4)[nH]2)N(C(=O)[C@H](NC(=O)OC)c2ccccc2)C1 [Example 622],0.001 to 0.999,0.001 to 0.999,0.001 to 0.999,0.001 to 0.99,0.001 to 0.999,0.001 to 0.999,0.016
CC[C@H](C)[C@H](NC(=O)OC)C(=O)N1C[C@@H](C)C[C@H]1c1ncc(-c2ccc3c(c2)COc2cc4c(ccc5nc([C@@H]6C[C@H](COC)CN6C(=O)[C@H](NC(=O)OC)c6ccccc6)[nH]c54)cc2-3)[nH]1 [Example 639],0.001 to 0.999,0.001 to 0.999,0.001 to 0.999,0.001 to 0.99,0.001 to 0.999,0.001 to 0.999,0.011
COC(=O)N[C@H](C(=O)N1[C@@H](C)CC[C@H]1c1nc2ccc3cc4c(cc3c2[nH]1)OCc1cc(-c2cnc([C@@H]3C[C@H](C)CN3C(=O)[C@H](NC(=O)OC)c3ccccc3)[nH]2)ccc1-4)C(C)C [Example 609],0.001 to 0.999,0.001 to 0.999,0.001 to 0.999,0.001 to 0.99,0.001 to 0.999,0.001 to 0.999,0.005
COC(=O)N[C@H](C(=O)N1[C@@H](C)CC[C@H]1c1ncc(-c2ccc3c(c2)COc2cc4c(ccc5nc([C@@H]6CCCN6C(=O)[C@H](NC(=O)OC)c6ccccc6)[nH]c54)cc2-3)[nH]1)C(C)C [Example 605],0.001 to 0.999,0.001 to 0.999,0.001 to 0.999,0.001 to 0.99,0.001 to 0.999,0.001 to 0.999,0.015
COC(=O)N[C@H](C(=O)N1[C@@H](C)CC[C@H]1c1ncc(-c2cc3c4c(c2)OCc2cc(-c5cnc([C@@H]6CC[C@H](C)N6C(=O)[C@@H](NC(=O)OC)[C@@H](C)OC)[nH]5)cc(c2-4)OC3)[nH]1)[C@@H](C)OC [Example 616],0.001 to 0.999,0.001 to 0.999,0.001 to 0.999,0.001 to 0.99,0.001 to 0.999,0.001 to 0.999,0.018
COC[C@H]1C[C@@H](c2nc3c([nH]2)-c2cc4c(cc2CC3)-c2ccc(-c3cnc([C@@H]5CC[C@H](C)N5C(=O)[C@@H](NC(=O)OC)C(C)C)[nH]3)cc2CO4)N(C(=O)[C@H](NC(=O)OC)c2ccccc2)C1 [Example 614],0.001 to 0.999,0.001 to 0.999,0.001 to 0.999,0.001 to 0.99,0.001 to 0.999,0.001 to 0.999,
COC[C@H]1C[C@@H](c2ncc(-c3ccc4c(c3)COc3cc5c(ccc6nc([C@@H]7CC[C@H](C)N7C(=O)[C@@H](NC(=O)OC)C(C)C)[nH]c65)cc3-4)[nH]2)N(C(=O)[C@H](NC(=O)OC)c2ccccc2)C1 [Example 599],0.001 to 0.999,0.001 to 0.999,0.001 to 0.999,0.001 to 0.99,0.001 to 0.999,0.001 to 0.999,
COC[C@H]1C[C@@H](c2ncc(-c3ccc4c(c3)COc3cc5c(ccc6nc([C@@H]7C[C@H]8C[C@H]8N7C(=O)[C@@H](NC(=O)OC)C(C)C)[nH]c65)cc3-4)[nH]2)N(C(=O)[C@H](NC(=O)OC)c2ccccc2)C1 [Example 633],0.001 to 0.999,0.001 to 0.999,0.001 to 0.999,0.001 to 0.99,0.001 to 0.999,0.001 to 0.999,0.02
COC[C@H]1C[C@@H](c2nc3ccc4cc5c(cc4c3[nH]2)OCc2cc(-c3cnc([C@@H]4CCCN4C(O)[C@@H](NC(=O)OC)[C@@H](C)OC)[nH]3)ccc2-5)N(C(=O)[C@H](NC(=O)OC)c2ccccc2)C1 (some centres unmarked) [Example 618],0.001 to 0.999,0.001 to 0.999,0.001 to 0.999,0.001 to 0.99,0.001 to 0.999,0.001 to 0.999,0.02
COC[C@H]1C[C@@H](c2ncc(-c3ccc4c(c3)COc3cc5c(ccc6nc([C@@H]7CCCN7C(=O)[C@H](NC(=O)OC)c7ccccc7)[nH]c65)cc3-4)[nH]2)N(C(=O)[C@@H](NC(=O)OC)[C@@H](C)OC)C1 [Example 626],0.001 to 0.999,0.001 to 0.999,0.001 to 0.999,0.001 to 0.99,0.001 to 0.999,0.001 to 0.999,0.03
COC[C@H]1C[C@@H](c2ncc(-c3ccc4c(c3)COc3cc5c(ccc6nc([C@@H]7CC[C@H](C)N7C(=O)[C@@H](NC(=O)OC)C(C)C)[nH]c65)cc3-4)[nH]2)N(C(=O)[C@@H](NC(=O)OC)[C@@H](C)OC)C1 [Example 610],0.001 to 0.999,0.001 to 0.999,0.001 to 0.999,0.001 to 0.99,0.001 to 0.999,0.001 to 0.999,0.013
COC[C@H]1C[C@@H](c2ncc(-c3cc4c5c(c3)OCc3cc(-c6cnc([C@@H]7C[C@H](C)CN7C(=O)[C@H](NC(=O)OC)c7ccccc7)[nH]6)cc(c3-5)OC4)[nH]2)N(C(=O)[C@@H](NC(=O)OC)C(C)C)C1 [Example 611],0.001 to 0.999,0.001 to 0.999,0.001 to 0.999,0.001 to 0.99,0.001 to 0.999,0.001 to 0.999,0.013
CC#Cc1cc2nc([C@@H]3CCCN3C(=O)[C@@H](NC(=O)OC)C(C)C)[nH]c2c2ccc(-c3ccc4c(ccc5nc([C@@H]6C[C@H](COC)CN6C(=O)[C@H](N)c6ccccc6)[nH]c54)c3)cc12 [Example 593],0.001 to 0.999,1 to 44,1 to 44,0.001 to 0.99,0.001 to 0.999,0.001 to 0.999,0.014
COC[C@H]1C[C@@H](c2ncc(-c3ccc4c(c3)COc3cc5c(ccc6nc([C@@H]7C[C@@H]8C[C@@H]8N7C(=O)[C@@H](NC(=O)OC)C(C)C)[nH]c65)cc3-4)[nH]2)N(C(=O)[C@H](NC(=O)OC)c2ccccc2)C1 [Example 636],0.001 to 0.999,0.001 to 0.999,0.001 to 0.999,0.001 to 0.99,0.001 to 0.999,0.001 to 0.999,0.011
COC[C@H]1C[C@@H](c2ncc(-c3ccc4c(c3)COc3cc5c(ccc6nc([C@@H]7C[C@H]8CC8N7C(=O)[C@H](NC(=O)OC)c7ccccc7)[nH]c65)cc3-4)[nH]2)N(C(=O)[C@@H](NC(=O)OC)C(C)C)C1 (some centres unmarked) [Example 601],0.001 to 0.999,0.001 to 0.999,0.001 to 0.999,0.001 to 0.99,0.001 to 0.999,0.001 to 0.999,0.014
CC[C@H](C)[C@H](NC(=O)OC)C(=O)N1C[C@@H](COC)C[C@H]1c1nc2ccc3cc4c(cc3c2[nH]1)OCc1cc(-c2cnc([C@@H]3CC[C@H](C)N3C(=O)[C@@H](NC(=O)OC)[C@@H](C)CC)[nH]2)ccc1-4 [Example 597],0.001 to 0.999,0.001 to 0.999,0.001 to 0.999,0.001 to 0.99,0.001 to 0.999,0.001 to 0.999,0.005
COC(=O)N[C@H](C(=O)N1[C@@H](C)CC[C@H]1c1ncc(-c2ccc3c(c2)COc2cc4c(ccc5nc([C@@H]6CCCN6C(=O)[C@@H](NC(=O)OC)[C@@H](C)OC)[nH]c54)cc2-3)[nH]1)C(C)C [Example 603],0.001 to 0.999,0.001 to 0.999,0.001 to 0.999,0.001 to 0.99,0.001 to 0.999,0.001 to 0.999,
